Consider 15 molecules from patent US20140343000A1 (priority 2011, published 2014).

This assay has as its system recombinant NL4-3 virus (Renilla luciferase in nef, Gag P373S; NLRluc) in MT-2 cells. Briefly: whole plant or invertebrate. The conditions noted are these: Renilla, NL43, luciferase activity in cells infected for 4-5 days with NLRluc recombinants, serial dilutions of inhibitor; class symbols (key in Table 1); read-out: EC50. It counts as cell-based, HIV. In outline:
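Luciferase signal is the read-out: after 4-5 days of infection in the presence of serially diluted compound, MT-2 cells are lysed with a premix of lysis buffer, luciferase reagent and Stop & Glo substrate, and luminescence is read immediately.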
On to `C=C(C)[C@@H]1CC[C@]2(NC(=O)CNS(=O)(=O)c3cccs3)CC[C@]3(C)[C@H](CC[C@@H]4[C@@]5(C)CC=C(c6ccc(C(=O)O)cc6)C(C)(C)[C@@H]5CC[C@]43C)[C@@H]12` [Example 115, 4-((1R,3aS,5aR,5bR,7aR,11aS,11bR,13aR,13bR)-5a,5b,8,8,11a-pentamethyl-1-(prop-1-en-2-yl)-3a-(2-(thiophene-2-sulfonamido)acetamido)-2,3,3a,4,5,5a,5b,6,7,7a,8,11,11a,11b,12,13,13a,13b-octadecahydro-1H-cyclopenta[a]chrysen-9-yl)benzoic acid], for which the EC50 was under 0.1 µM. The value for `C=C(C)[C@@H]1CC[C@]2(NC(=O)C(CC)NC3CCS(=O)(=O)C3)CC[C@]3(C)[C@H](CC[C@@H]4[C@@]5(C)CC=C(c6ccc(C(=O)O)cc6)C(C)(C)[C@@H]5CC[C@]43C)[C@@H]12` (stereo partly drawn) [Example 116, benzoic acid, 4-[(1R,3aS,5aR,5bR,7aR,11aS,11bR,13aR,13bR)-2,3,3a,4,5,5a,5b,6,7,7a,8,11,11a,11b,12,13,13a,13b-octadecahydro-5a,5b,8,8,11a-pentamethyl-1-(1-methylethenyl)-3a-[[1-oxo-2-[(tetrahydro-1,1-dioxido-3-thienyl)amino]butyl]amino]-1H-cyclopenta[a]chrysen-9-yl]] was under 0.1 µM.

With `C=C(C)[C@@H]1CC[C@]2(NC(=O)CN3CCCCS3(=O)=O)CC[C@]3(C)[C@H](CC[C@@H]4[C@@]5(C)CC=C(c6ccc(C(=O)O)cc6)C(C)(C)[C@@H]5CC[C@]43C)[C@@H]12` [Example 117, benzoic acid, 4-[(1R,3aS,5aR,5bR,7aR,11aS,11bR,13aR,13bR)-2,3,3a,4,5,5a,5b,6,7,7a,8,11,11a,11b,12,13,13a,13b-octadecahydro-5a,5b,8,8,11a-pentamethyl-1-(1-methylethenyl)-3a-[[(tetrahydro-1,1-dioxido-2H-1,2-thiazin-2-yl)acetyl]amino]-1H-cyclopenta[a]chrysen-9-yl]], the EC50 is under 0.1 µM.

Consider `C=C(C)[C@@H]1CC[C@]2(NC(=O)CN3CCC(F)(F)CC3)CC[C@]3(C)[C@H](CC[C@@H]4[C@@]5(C)CC=C(c6ccc(C(=O)O)cc6)C(C)(C)[C@@H]5CC[C@]43C)[C@@H]12` [Example 118, 4-((1R,3aS,5aR,5bR,7aR,11aS,11bR,13aR,13bR)-3a-(2-(4,4-difluoropiperidin-1-yl)acetamido)-5a,5b,8,8,11a-pentamethyl-1-(prop-1-en-2-yl)-2,3,3a,4,5,5a,5b,6,7,7a,8,11,11a,11b,12,13,13a,13b-octadecahydro-1H-cyclopenta[a]chrysen-9-yl)benzoic acid], for which the EC50 is under 0.1 µM.

On to `C=C(C)[C@@H]1CC[C@]2(NC(=O)CN3CCC(F)(F)C3)CC[C@]3(C)[C@H](CC[C@@H]4[C@@]5(C)CC=C(c6ccc(C(=O)O)cc6)C(C)(C)[C@@H]5CC[C@]43C)[C@@H]12` [Example 119, 4-((1R,3aS,5aR,5bR,7aR,11aS,11bR,13aR,13bR)-3a-(2-(3,3-difluoropyrrolidin-1-yl)acetamido)-5a,5b,8,8,11a-pentamethyl-1-(prop-1-en-2-yl)-2,3,3a,4,5,5a,5b,6,7,7a,8,11,11a,11b,12,13,13a,13b-octadecahydro-1H-cyclopenta[a]chrysen-9-yl)benzoic acid], for which the half-maximal effective concentration (EC50) was under 0.1 µM.

As to `C=C(C)[C@@H]1CC[C@]2(NC(=O)Cc3cccnc3)CC[C@]3(C)[C@H](CC[C@@H]4[C@@]5(C)CC=C(c6ccc(C(=O)O)cc6)C(C)(C)[C@@H]5CC[C@]43C)[C@@H]12` [Example 120, benzoic acid, 4-[(1R,3aS,5aR,5bR,7aR,11aS,11bR,13aR,13bR)-2,3,3a,4,5,5a,5b,6,7,7a,8,11,11a,11b,12,13,13a,13b-octadecahydro-5a,5b,8,8,11a-pentamethyl-1-(1-methylethenyl)-3a-[(3-pyridinylacetyl)amino]-1H-cyclopenta[a]chrysen-9-yl]], the EC50 is under 0.1 µM. The value for `C=C(C)[C@@H]1CC[C@]2(NC(=O)COc3cccnc3)CC[C@]3(C)[C@H](CC[C@@H]4[C@@]5(C)CC=C(c6ccc(C(=O)O)cc6)C(C)(C)[C@@H]5CC[C@]43C)[C@@H]12` [Example 121, 4-((1R,3aS,5aR,5bR,7aR,11aS,11bR,13aR,13bR)-5a,5b,8,8,11a-pentamethyl-1-(prop-1-en-2-yl)-3a-(2-(pyridin-3-yloxy)acetamido)-2,3,3a,4,5,5a,5b,6,7,7a,8,11,11a,11b,12,13,13a,13b-octadecahydro-1H-cyclopenta[a]chrysen-9-yl)benzoic acid] was under 0.1 µM; that for `C=C(C)[C@@H]1CC[C@]2(NC(=O)CN3CCCCC3)CC[C@]3(C)[C@H](CC[C@@H]4[C@@]5(C)CC=C(c6ccc(C(=O)O)cc6)C(C)(C)[C@@H]5CC[C@]43C)[C@@H]12` [Example 122, 4-((1R,3aS,5aR,5bR,7aR,11aS,11bR,13aR,13bR)-5a,5b,8,8,11a-pentamethyl-3a-(2-(piperidin-1-yl)acetamido)-1-(prop-1-en-2-yl)-2,3,3a,4,5,5a,5b,6,7,7a,8,11,11a,11b,12,13,13a,13b-octadecahydro-1H-cyclopenta[a]chrysen-9-yl)benzoic acid] was under 0.1 µM. The value for `C=C(C)[C@@H]1CC[C@]2(NC(=O)CN(C(C)C)C(C)C)CC[C@]3(C)[C@H](CC[C@@H]4[C@@]5(C)CC=C(c6ccc(C(=O)O)cc6)C(C)(C)[C@@H]5CC[C@]43C)[C@@H]12` [Example 123, 4-((1R,3aS,5aR,5bR,7aR,11aS,11bR,13aR,13bR)-3a-(2-(diisopropylamino)acetamido)-5a,5b,8,8,11a-pentamethyl-1-(prop-1-en-2-yl)-2,3,3a,4,5,5a,5b,6,7,7a,8,11,11a,11b,12,13,13a,13b-octadecahydro-1H-cyclopenta[a]chrysen-9-yl)benzoic acid] was under 0.1 µM; that for `C=C(C)[C@@H]1CC[C@]2(NC(=O)CN3CCCCC3C)CC[C@]3(C)[C@H](CC[C@@H]4[C@@]5(C)CC=C(c6ccc(C(=O)O)cc6)C(C)(C)[C@@H]5CC[C@]43C)[C@@H]12` (stereo partly drawn) [Example 124, 4-((1R,3aS,5aR,5bR,7aR,11aS,11bR,13aR,13bR)-5a,5b,8,8,11a-pentamethyl-3a-(2-(2-methylpiperidin-1-yl)acetamido)-1-(prop-1-en-2-yl)-2,3,3a,4,5,5a,5b,6,7,7a,8,11,11a,11b,12,13,13a,13b-octadecahydro-1H-cyclopenta[a]chrysen-9-yl)benzoic acid] was under 0.1 µM. The result for `C=C(C)[C@@H]1CC[C@]2(NC(=O)CNc3ccc(F)cc3)CC[C@]3(C)[C@H](CC[C@@H]4[C@@]5(C)CC=C(c6ccc(C(=O)O)cc6)C(C)(C)[C@@H]5CC[C@]43C)[C@@H]12` [Example 125, 4-((1R,3aS,5aR,5bR,7aR,11aS,11bR,13aR,13bR)-3a-(2-(4-fluorophenylamino)acetamido)-5a,5b,8,8,11a-pentamethyl-1-(prop-1-en-2-yl)-2,3,3a,4,5,5a,5b,6,7,7a,8,11,11a,11b,12,13,13a,13b-octadecahydro-1H-cyclopenta[a]chrysen-9-yl)benzoic acid] reads under 0.1 µM; that for `C=C(C)[C@@H]1CC[C@]2(NC(=O)Cc3ncccn3)CC[C@]3(C)[C@H](CC[C@@H]4[C@@]5(C)CC=C(c6ccc(C(=O)O)cc6)C(C)(C)[C@@H]5CC[C@]43C)[C@@H]12` [Example 126, 4-((1R,3aS,5aR,5bR,7aR,11aS,11bR,13aR,13bR)-5a,5b,8,8,11a-pentamethyl-1-(prop-1-en-2-yl)-3a-(2-(pyrimidin-2-yl)acetamido)-2,3,3a,4,5,5a,5b,6,7,7a,8,11,11a,11b,12,13,13a,13b-octadecahydro-1H-cyclopenta[a]chrysen-9-yl)benzoic acid], under 0.1 µM. Turning to `C=C(C)[C@@H]1CC[C@]2(NC(=O)Cc3ccccn3)CC[C@]3(C)[C@H](CC[C@@H]4[C@@]5(C)CC=C(c6ccc(C(=O)O)cc6)C(C)(C)[C@@H]5CC[C@]43C)[C@@H]12` [Example 127, 4-((1R,3aS,5aR,5bR,7aR,11aS,11bR,13aR,13bR)-5a,5b,8,8,11a-pentamethyl-1-(prop-1-en-2-yl)-3a-(2-(pyridin-2-yl)acetamido)-2,3,3a,4,5,5a,5b,6,7,7a,8,11,11a,11b,12,13,13a,13b-octadecahydro-1H-cyclopenta[a]chrysen-9-yl)benzoic acid], the EC50 was under 0.1 µM. Regarding `CC(C)[C@@H]1CC[C@]2(NC(=O)CN3CCS(=O)(=O)CC3)CC[C@]3(C)[C@H](CC[C@@H]4[C@@]5(C)CC=C(c6ccc(C(=O)O)cc6)C(C)(C)[C@@H]5CC[C@]43C)[C@@H]12` [Example 129, 4-((1S,3aS,5aR,5bR,7aR,11aS,11bR,13aR,13bR)-3a-(((1,1-dioxido-4-thiomorpholinyl)acetyl)amino)-1-isopropyl-5a,5b,8,8,11a-pentamethyl-2,3,3a,4,5,5a,5b,6,7,7a,8,11,11a,11b,12,13,13a,13b-octadecahydro-1H-cyclopenta[a]chrysen-9-yl)benzoic acid], the EC50 was under 0.1 µM.

`CC(C)[C@@H]1CC[C@]2(NC(=O)CN3CCS(=O)(=O)CC3)CC[C@]3(C)[C@H](CC[C@@H]4[C@@]5(C)CC[C@H](c6ccc(C(=O)O)cc6)C(C)(C)[C@@H]5CC[C@]43C)[C@@H]12` [Example 130, 4-((1S,3aS,5aR,5bR,7aS,9S,11aS,11bR,13aR,13bR)-3a-(((1,1-dioxido-4-thiomorpholinyl)acetyl)amino)-1-isopropyl-5a,5b,8,8,11a-pentamethylicosahydro-1H-cyclopenta[a]chrysen-9-yl)benzoic acid]: the EC50 is under 0.1 µM.
